{"source": "patent US7217534B2", "about": "“Methods of screening apoptosis modulating compounds, compounds identified by said methods and use of said compounds as therapeutic agents” (Institut Pasteur, priority 2002, dated 2007)", "key": {"[1]": {"system": "IL-4-stimulated cells (TS1αβ murine T cell line)", "experiment": "Apoptosis by cell cycle analysis (sub-G1 region, propidium iodide flow cytometry)", "assay_type": "cell-based", "procedure": "(§1) A) IL-4-stimulated cells were serum-starved for 30 min and then treated with or without 10 mM M-β-CD for 30 min at 37° C. before incubation with CTx-FITC and anti-Bad or anti-Lck antibodies, followed by Cy3-labeled secondary antibody. Then, cells were analyzed by confocal microscopy. Similar results were obtained in two independent experiments. Single confocal sections show green (FITC) and red (Cy3) fluorescence. B) IL-4-stimulated cells were serum-starved for 30 min and then treated with or without 10 mM M-β-CD for 30 min at 37° C., then washed and transferred to complete medium supplemented with IL-4. At different times, apoptosis was measured. Sub G1 region of the fluorescence scale was used to determine the percentage of cells present in the initial step of apoptosis. Similar results were obtained in two independent experiments. White bars, control cells; grey bars, M-β-CD-treated cells.\n(§2) TS1αβ is a murine T cell line that can be propagated independently in IL-2, IL-4 or IL-9 Cells were cultured in RPMI-1640 as previously described (Pitton et al., 1993, Cytokine 5, 362–371). Murine rIL-4 or supernatant of a HeLa subline transfected with PKCRIL-4.neo was used as a source of murine IL-4. Fluorescein isothiocyanate (FITC-)-labeled cholera toxin (CTx) B subunit, CTx-Biotin and methyl-β-cyclodextrin (M-β-CD) were obtained from Sigma-Aldrich (St. Louis, Mo.). Cy3- and Cy2-conjugated secondary antibodies were purchased from Molecular Probes (Eugene, Oreg.). Anti-mitochondria serum (mito 2813, pyruvate dehydrogenase) was a gift from Dr A. Serrano (CNB, Madrid, Spain).\nA total of 2×10^5 IL-4-stimulated cells treated with or without M-β-CD were washed, resuspended in PBS, permeabilized with 0.1% Nonidet P-40 and stained with 50 μg/ml propidium iodide (PI). At different times, samples were analyzed using a EpicsXL flow cytometer (Coulter, Hialeah, Fla.). Apoptosis was measured as the percentage of cells in the sub-G1 region of the fluorescence scale having an hypodiploid DNA content.\nGiven that exclusion of Bad from rafts was also observed in apoptotic IL-4-deprived cells (FIG. 3A), it was analyzed whether Bad association to rafts and its integrity was necessary for prevention of apoptosis. For this purpose, IL-4-stimulated cells were treated for 30 min with or without M-β-CD in serum-free medium, then washed, resuspended in IL-4-supplemented complete medium and analyzed for induction of apoptosis at different times (FIG. 4B). […] Eight hours upon treatment, the amount of apoptotic cells detected in treated and non treated cells were similar because addition of serum restores the lipid composition of the membrane."}, "[2]": {"system": "IL-4-stimulated cells (TS1αβ murine T cell line)", "experiment": "Cholesterol depletion, raft association of Bad and Lck by CTx-FITC confocal microscopy", "assay_type": "cell-based", "settings": "10 mM, 30 min, 37° C., serum-free medium", "procedure": "as §1, with “cells. […]” for “cells.”\nIL-4-stimulated or -deprived cells were fixed with 1% paraformaidehyde for 5 min on ice, permeabilized and then incubated with CTx-FITC (20 min, 6 μg/ml) and anti-Bad antibody for 1 h in PBS-BSA. […] Finally, and after several washing steps, cells were incubated with methanol at −20° C. for 10 min, mounted wiht Vectashield medium, and analyzed by confocal microscopy. The program used for quantification of samples was Leica TSC NT version 1.5.451 (Leica, Lasertechnik, Heidelberg, Germany). […]"}, "Bad": {"system": "Bad", "experiment": "Serine phosphorylation of Bad by immunoprecipitation and western blot", "assay_type": "cell-based, murine", "settings": "anti-Bad serine 136, 112 and 155 blots, IL-4-stimulated cells", "from_the_text": "A) Cytoplasmic extracts from IL-4-stimulated or -deprived cells were immunoprecipitated with anti-Bad antibody and blotted with anti-Bad serine 136, 112 and 155. As internal control, the blot was developed with anti-Bad. Positive control for serine 112 and 136 phosphorylation, IL-2-stimulated cells; positive control for serine 155 phosphorylation of Bad, Bad-transfected COS cells (C). […] Molecular weight of the corresponding proteins is shown.\nas §2, with “Spain). […]” for “Spain).”\nPosttranslational modifications of Bad such as phosphorylation, and its role in Bad localization in rafts or mitochondria was further analyzed. […]"}}}
{"molecule": "methyl-β-cyclodextrin [M-β-CD]", "values": [{"measurement": "time of highest level of apoptosis after treatment", "setting": "[1]; 30 min treatment in serum-free medium, then IL-4-supplemented complete medium", "value": 5, "unit": "h"}, {"measurement": "level of apoptosis compared with control non treated cells", "setting": "[1]; 30 min treatment in serum-free medium, then IL-4-supplemented complete medium, different times", "value": "stronger level of apoptosis"}, {"measurement": "amount of apoptotic cells in treated and non treated cells", "setting": "[1]; eight hours upon treatment, serum added back", "value": "similar"}, {"measurement": "raft formation and association of Lck and Bad with rafts", "setting": "[2]", "value": "severe disruption of raft formation and association of Lck and Bad with rafts"}]}
{"molecule": "IL-4: Murine rIL-4 or supernatant of a HeLa subline transfected with PKCRIL-4.neo, used as source of murine IL-4 (protein, UniProt P07750 21-140, looked up) Interleukin-4: HIHGCDKNHLREIIGILNEVTGEGTPCTEMDVPNVLTATKNTTESELVCRASKVLRIFYLKHGKTPCLKKNSSVLMELQRLFRAFRCLDSSISCTMNESKSTSLKDFLESLKSIMQMDYS", "values": [{"measurement": "level of apoptosis in IL-4-stimulated cells", "setting": "[1]; control IL-4-stimulated cells versus IL-4-deprived cells, 4 h to 24 h", "value": "no significant level of apoptosis"}, {"measurement": "serine phosphorylation of Bad", "setting": "Bad", "value": "induces serine 136 phosphorylation of Bad, but not serine 112 and 155"}]}
